# Reference: ChEMBL document CHEMBL3856198, “Synthesis of novel 17-(4'-formyl)pyrazolylandrosta-5,16-dienes and their derivatives as potent 17α-hydroxylase/C17,20-lyase inhibitors or antiproliferative agents depending on the substitution pattern of the heteroring” (Eur J Med Chem, 2016)
# pIC50: −log10 of the molar value.
# Experiments:
# [1] = molecular target: T1, Steroid 17-alpha-hydroxylase/17,20 lyase (Rattus norvegicus, UniProt P11715); assay: Inhibition of Wistar rat testicular C17,20-lyase assessed as androst-4-ene-3,17-dione formation using [3H]17-hydroxyprogesterone as substrate in presence of NADPH
# T1 sequence (P11715 whole entry): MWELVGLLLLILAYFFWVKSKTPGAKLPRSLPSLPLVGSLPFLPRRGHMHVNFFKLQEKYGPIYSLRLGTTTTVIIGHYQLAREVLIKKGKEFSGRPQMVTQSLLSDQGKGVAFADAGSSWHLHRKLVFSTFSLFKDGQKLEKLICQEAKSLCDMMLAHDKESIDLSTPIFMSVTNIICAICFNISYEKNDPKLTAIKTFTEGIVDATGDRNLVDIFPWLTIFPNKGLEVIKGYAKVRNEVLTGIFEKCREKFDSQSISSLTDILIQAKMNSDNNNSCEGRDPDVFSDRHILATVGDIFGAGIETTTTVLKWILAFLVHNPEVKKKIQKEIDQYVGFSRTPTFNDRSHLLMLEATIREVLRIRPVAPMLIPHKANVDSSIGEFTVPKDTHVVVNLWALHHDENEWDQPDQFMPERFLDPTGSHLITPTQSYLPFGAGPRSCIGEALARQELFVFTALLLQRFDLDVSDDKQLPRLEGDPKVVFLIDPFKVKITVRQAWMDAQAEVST
# [2] = Growth inhibition of human MDA-MB-361 cells after 72 hrs by MTT assay; format: functional, cell-based; details: MDA-MB-361, 72 h
# [3] = Growth inhibition of human T47D cells after 72 hrs by MTT assay; format: functional, cell-based
# [4] = Growth inhibition of human MDA-MB-231 cells at 30 uM after 72 hrs by MTT assay; format: functional; details: MDA-MB-231, 72 h, read-out: GI
# [5] = Growth inhibition of human MCF7 cells after 72 hrs by MTT assay; format: functional, cell-based; details: MCF7, 72 h
# [6] = Growth inhibition of human MDA-MB-231 cells after 72 hrs by MTT assay; format: functional, cell-based; details: MDA-MB-231, 72 h
# [7] = Growth inhibition of human MCF7 cells at 10 uM after 72 hrs by MTT assay; format: functional; details: MCF7, 72 h, read-out: GI
# [8] = Growth inhibition of human MDA-MB-361 cells at 10 uM after 72 hrs by MTT assay; format: functional; details: MDA-MB-361, 72 h, read-out: GI
# [9] = Growth inhibition of human MCF7 cells at 30 uM after 72 hrs by MTT assay; format: functional; details: MCF7, 72 h, read-out: GI
# [10] = Growth inhibition of human MDA-MB-361 cells at 30 uM after 72 hrs by MTT assay; format: functional; details: MDA-MB-361, 72 h, read-out: GI
# [11] = Growth inhibition of human MDA-MB-231 cells at 10 uM after 72 hrs by MTT assay; format: functional; details: MDA-MB-231, 72 h, read-out: GI
# [12] = Growth inhibition of human T47D cells at 10 uM after 72 hrs by MTT assay; format: functional; details: read-out: GI
# [13] = Growth inhibition of human T47D cells at 30 uM after 72 hrs by MTT assay; format: functional; details: read-out: GI
# [14] = molecular target: T1, Steroid 17-alpha-hydroxylase/17,20 lyase; assay: Potency index, ratio of ketoconazole IC50 to compound IC50 for Wistar rat testicular C17,20-lyase
SMILES,pIC50 [1],pIC50 [2],pIC50 [3],inhibition of growth at 30 µM [4] [%],pIC50 [5],pIC50 [6],inhibition of growth at 10 µM [7] [%],inhibition of growth at 10 µM [8] [%],inhibition of growth at 30 µM [9] [%],inhibition of growth at 30 µM [10] [%],inhibition of growth at 10 µM [11] [%],inhibition of growth at 10 µM [12] [%],inhibition of growth at 30 µM [13] [%],Ratio IC50 [14]
C[C@]12CC[C@H](O)CC1=CC[C@@H]1[C@@H]2CC[C@]2(C)C(c3ccn[nH]3)=CC[C@@H]12,8.11,,,,,,,,,,,,,
COc1ccc(-n2cc(C=O)c(C3=CC[C@H]4[C@@H]5CC=C6C[C@@H](O)CC[C@]6(C)[C@H]5CC[C@]34C)n2)cc1,,5.48,5.43,96.2,5.42,5.44,92.3,89.6,98.1,96.2,96.1,92.5,96.7,
C[C@]12CC[C@H](O)CC1=CC[C@@H]1[C@@H]2CC[C@]2(C)C(c3nn(-c4ccccc4)cc3CO)=CC[C@@H]12,,5.68,,93.2,5.47,5.28,79.2,90.6,89.8,96.1,85.2,74.4,90.6,
C[C@]12CC[C@H](O)CC1=CC[C@@H]1[C@@H]2CC[C@]2(C)C(c3n[nH]cc3C=O)=CC[C@@H]12,7.18,,,93.7,,,31.4,42.6,80.8,79.7,54.3,43.2,77,
C[C@]12CC[C@H](O)CC1=CC[C@@H]1[C@@H]2CC[C@]2(C)C(c3nn(-c4ccccc4)cc3C=O)=CC[C@@H]12,,5.42,5.41,96.3,5.43,5.27,93.4,88.6,98.1,95.8,93.5,93.2,96.9,
C[C@]12CC[C@H](O)CC1=CC[C@@H]1[C@@H]2CC[C@]2(C)C(c3nn(-c4ccc(Cl)cc4)cc3CO)=CC[C@@H]12,,5.60,5.24,97.8,,5.44,54.3,80,90.9,93.1,93.2,81,94.8,
C[C@]12CC[C@H](O)CC1=CC[C@@H]1[C@@H]2CC[C@]2(C)C(c3nn(-c4ccc(C#N)cc4)cc3CO)=CC[C@@H]12,,5.80,5.92,96.4,5.85,5.74,71.6,86.5,88.4,91.9,95.9,89.6,94.5,
C[C@]12CC[C@H](O)CC1=CC[C@@H]1[C@@H]2CC[C@]2(C)C(c3nn(-c4ccc(Br)cc4)cc3CO)=CC[C@@H]12,,5.70,,88.2,,5.40,65.9,83.5,86.9,91.5,76.8,68.2,85.9,
C[C@]12CC[C@H](O)CC1=CC[C@@H]1[C@@H]2CC[C@]2(C)C(c3n[nH]cc3C#N)=CC[C@@H]12,7.04,,,88.4,,,36.6,46.6,63.4,80.4,23.3,46.8,75.7,
C[C@]12CC[C@H](O)CC1=CC[C@@H]1[C@@H]2CC[C@]2(C)C(c3n[nH]cc3CO)=CC[C@@H]12,7.59,,,< 20,,,< 20,< 20,< 20,35.6,< 20,< 20,25.7,12
C[C@]12CC[C@H](O)CC1=CC[C@@H]1[C@@H]2CC[C@]2(C)C(c3cccnc3)=CC[C@@H]12 [ABIRATERONE],,4.69,4.77,85,4.71,4.72,12.4,32.2,74.7,61.2,14.3,32.5,70.8,
